Where two headings read alike, the source gives them in different places.
Tests used:
[1] = test system: adjuvant-induced arthritis in rats; assay: Established Adjuvant-Induced Arthritis in Rats (A.A.); type: in vivo, Charles River Lewis male rats; conditions: Rattus norvegicus, 24 h, read-out: A.A. ED50% (ED50% decrease from control paw volume)
[2] = test system: stretching or writhing syndrome indicative of pain induced by phenylquinone; assay: Phenylquinone Writhing Test; type: in vivo, female white mice; conditions: Mus musculus, 0.5 h; oral, fasted mice; at 1/2 hour; read-out: ED50 (effective analgesic dose for 50% of the mice)
Experimental: Phenylquinone Writhing Test
A standard procedure for detecting and comparing the analgesic activity of compounds in this series for which there is good correlation with human efficacy is the standard phenylquinone writhing test modified from Siegmund, et al., Proc. Soc. Exp. Biol. Med. 95, 729 (1957). A test compound suspended in 1% methylcellulose was given orally to fasted (17-21 hours) female white mice, 5-20 animals per double blind test. Aqueous (0.01% phenyl-p-benzoquinone) phenylquinone was injected intraperitoneally at 24 minutes later using 0.20 ml per mouse. […] The effective analgesic dose for 50% of the mice (ED50) was calculated by the moving average method of Thompson, W. R., Bact. Rev. 11, 115-145 (1947); also time of peak action was determined for many of the compounds.

[3] = oral, rats, 7 daily doses by gavage, paw volume of uninjected left hind paw one day after last dose

Question: `O=[N+]([O-])c1nc(-c2ccc(F)cc2)c(-c2ccc(F)cc2)[nH]1` [Example 1, 4,5-bis(4-Fluorophenyl)-2-nitroimidazole] was tested. Which ED50 [1, 3] did it give?
Answer: The ED50 was 0.6 mg/kg.

Question: And the ED50 [2]?
Answer: The ED50 was 59 mg/kg.

Question: Which ED50 [1, 3] does the source give for `CC(C)Cc1ccc(C(C)C(=O)O)cc1` (centres unmarked) [Ibuprofen, ibuprofen] here?
Answer: The ED50 was 100 mg/kg.

Question: How did the ED50 ([1]; po) turn out when `COc1ccc2c(c1)c(CC(=O)O)c(C)n2C(=O)c1ccc(Cl)cc1` [Indomethacin, indomethacin] was run?
Answer: Its ED50 is 0.3 mg/kg.

Question: With `CC(=O)Oc1ccccc1C(=O)O` [Aspirin, aspirin] as the compound, how does the ED50 ([1]; po) read?
Answer: Its ED50 is 305 mg/kg.

Question: For `CCCCC1C(=O)N(c2ccccc2)N(c2ccccc2)C1=O` [Phenylbutazone, phenylbutazone], which ED50 [1, 3] is on record?
Answer: The ED50 was 10 mg/kg.

Question: Which results are given for `COc1ccc(-c2nc([N+](=O)[O-])[nH]c2-c2ccc(OC)cc2)cc1` [Example 2, 4,5-bis(4-Methoxyphenyl)-2-nitroimidazole]?
Answer: ED50 [1, 3]: 2.5 mg/kg; ED50 [2]: < 130 mg/kg
